# Earlier results, collected in publication PMC11676896, “Protective Action of Cannabidiol on Tiamulin Toxicity in Humans—In Vitro Study” (International Journal of Molecular Sciences, 2024).
# Legend:
# CYP1A1 = test system: CYP1A1; set-up: method as in PMID 26187180; conditions: cited from earlier work
# [1] = set-up: method as in previous studies; conditions: CBD 1.56 and 3.125 µg/mL; ref previous studies; cited from earlier work
smiles,measurement,setting,value
"C=C(C)[C@@H]1CCC(C)=C[C@H]1c1c(O)cc(CCCCC)cc1O [CBD, cannabidiol]",induction of CYP1A1 expression,CYP1A1,strongest inducer of CYP1A1 expression
same,cell viability with CBD alone,[1],did not show a decrease in cell viability
